Here are results for 1 molecule from article PMC7395048 (Archives of Toxicology, 2020).

In this series the test system is hiPSC-CM. Put plainly: hiPSC-CM MEA assay (FPDc, extracellular field potential). On the procedure:
Briefly, each well of the MEA chips was precoated with 50 μg/ml fibronectin for 3 h in the incubator at 37 °C with 5% CO2. The fibronectin coating solution was aspirated before seeding. Cells were thawed in the incubator at 37 °C for exactly 4 min and carefully transferred to a 50-ml tube. The original vial was rinsed with serum free Pluricyte® Cardiomyocyte Medium and added drop-wise to the tube containing the cardiomyocytes. […] Then, the supernatant was removed and medium was drop-wisely added to reach the aimed concentration of cells in the suspension (10^4 cells/μl). 2-μl cell suspension per well was placed on the six-well MEA chips in a density of 10^4 cells/μl. After 3-h incubation (37 °C, 5% CO2), 200 μl of medium was filled into each well of the MEA chips which were subsequently incubated at 37 °C with 5% CO2 and refreshed with medium every 2 days.
At 7–8 days after seeding, MEA chips were placed on the headstage of a MEA2100-system (MCS GmbH) integrated with the chamber providing a stable atmosphere (37 °C, 5% CO2) to record the extracellular field potential (Fig. 2) of spontaneous beating hiPSC-CM. After an equilibration time of 20 min, half of the medium (100 μl) in each well was replaced by culture medium containing 0.2% (v/v) DMSO to reach a final concentration of 0.1% (v/v) DMSO, which was used as baseline condition. […] At each concentration, the extracellular field potential was recorded for 1 min after 10-min exposure. […] Same test concentrations were chosen for EDDP and EMDP, which enables definition of concentration-dependent curves for EDDP and EMDP that allow potency comparison.
One well of 0.1% (v/v) DMSO on each MEA chip was used as the vehicle control well and run at the same time as the compound exposure wells to correct for time- and DMSO-dependent effects on the field potential. A detailed exposure scheme can be found in Fig. S1. Data were collected using Cardio 2D software (MCS GmbH) with a sample frequency of 10 kHz and a 0.1–3.5-kHz band-pass filter.
Field potential duration (FPD) was defined as duration between the beginning of the sodium spike and the repolarizing peak (Fig. 2). RR-intervals were defined as the duration between two depolarization peaks (Fig. 2). The FPD and RR-interval were measured as the average of at least 30 beats from 1-min recording at each concentration of the test compound.
In this formula, the FPD and RR-interval are expressed in seconds. Data were collected from at least three independent experiments (4–8 wells, 26–38 electrodes), using a new vial of cells (all from the same batch) at each independent experiment. […] The concentrations inducing irregularities in the field potential trace (Fig. S2) were also noted.
The concentration–response curves were plotted with GraphPad Prism 5.0 using the four-parameters logistic fit (GraphPad Software Inc., San Diego, USA). Each data point is presented as the mean value of at least three independent experiments ± standard deviation (SD). Statistical significance of the changes in response of cells exposed to the compound compared to the solvent control was analyzed by one-way ANOVA followed by post Dunnett test. Values of p < 0.05 were regarded as statistically significant (p < 0.05: *, p < 0.01: ** and p < 0.001: ***). Statistical analysis was performed by GraphPad Prism 5.0 (GraphPad Software Inc.).

The structures appear in SMILES notation.

As for `CCC(=O)C(CC(C)N(C)C)(c1ccccc1)c1ccccc1` (stereo not shown) [methadone], the “BMC20, prolongation of FPDc” value (20% change in FPDc over control, cumulative addition, 10-min exposure) was 0.6 µM. The “concentration at which cessation of beating was observed” value (human, 10 min) amounted to 30 µM. Besides, the “concentration from which arrhythmia-like waveforms were induced” value (tested up to 30 µM) is at least 3 µM. Further, the “cytotoxicity at the test concentrations” value (up to 30 µM, data not shown) is listed as “no cytotoxicity was observed”.
